Experimental data as given in PMC3886529, “Structural Features of the Peptide Homologous to 6-25 Fragment of Influenza A PB1 Protein” (International Journal of Peptides, 2013).
Ends that are not written are not given here.

Key:
[1] = target: T1, PB1 (6-25) (Influenza A virus, UniProt O89749); type: physicochemical
[2] = target: T1, PB1 (6-25); type: physicochemical; remark: listed apart in the source
[3] = target: T1, PB1 (6-25); type: physicochemical; details: pH 7.4
[4] = type: physicochemical; details: diluted to 0.2 mM, negative staining (phosphotungstic acid, pH 7.4), 80 kV
[5] = target: T1, PB1 (6-25); type: binding
[6] = target: T1, PB1 (6-25); test: biochemical; type: binding
[7] = Circular dichroism, secondary structure of PB1 (6-25) in solution; type: physicochemical; details: CD 194–320 nm, 1 mg/mL solution
Procedure: Circular dichroism (194–320 nm) was measured on PB1 (6-25) 1 mg/mL solution. Spectra were analyzed with CDNN software.

| Substance | reversibility of insoluble aggregates [1] | diameter of aggregates [2] | characteristic linear size of structured aggregates [3] | formation of structured aggregates, single peptide alone [4] | effect on antiparallel beta-sheets of PB1 (6-25) [5] | Kd [6] | alpha-helix content ([7]; CDNN software) | antiparallel beta-sheet content ([7]; CDNN software) | beta-turns content ([7]; CDNN software) | random coil structure content ([7]; CDNN software) | secondary structure in solution ([7]; compared with the molecular dynamics model) |
| --- | --- | --- | --- | --- | --- | --- | --- | --- | --- | --- | --- |
| TLLFLKVP-OH [PB1 (6-13), TLLFLKVP] | could not reverse into soluble forms after dilution or heating | 500–1000 nm | about 500 nm | not in the samples containing either one of the peptides | contributed to increase antiparallel beta-sheets | 200 to 1000 µM |  |  |  |  |  |
| TLLFLKVPAQNAISTTFPYT [PB1 (6-25), peptide comprised of amino acid residues 6-25 of influenza virus PB1] |  |  |  | not in the samples containing either one of the peptides |  |  | 8% | 30% | 25% | 37% | structure similar to the described model of beta-hairpin |
